This note sets out measurements from patent EP3906926A1, “PROLINE HYDROXYLASE INHIBITORS FOR USE IN THE SKELETAL MUSCLE REGENERATION” (Policlinico San Donato S.p.A.- Istituto di Ricovero e Cura …, priority 2020, dated 2021).

Structures are written as SMILES.

For data set [1], the system named is C2C12 murine myoblasts. The data set can be described thus: CellTox Cytotoxicity Assay. The conditions noted are these: at EC50 concentration (250 µM), 24 hours.
Description: To assess PHDs inhibitors cytotoxicity, 5 x 10^3 C2C12 murine myoblasts were seeded in a 96-well plate.
Data set [2] relates to VEGF. Put plainly: qPCR of HIF-1α target gene VEGF. In kind it is cell-based, murine. Conditions: PLG at EC50 (250 µM), 24 hours. On the procedure: (§1) Total RNA was isolated using ReliaPrep™ RNA Miniprep Systems (Promega), and reverse transcribed to cDNA using the iScript cDNA synthesis kit (BioRad), according to the Manufacturer's instructions. Real-Time Quantitative PCR was performed on 10 ng of cDNA template, 0.2 µM primers, and GoTaq® qPCR Master Mix (Promega) in 20 µl final volume using a StepOnePlus® Real-Time PCR System (Applied Biosystem). […] RPL13 was used as the housekeeping gene. The amplification program consisted in an initial denaturation at 95°C for 3 minutes, followed by 40 cycles of 5 seconds each at 95°C and 30 seconds at 57°C; WNT7a was amplified at 53°C. Relative quantification of target genes was performed in triplicate and calculated by the equation 2^-ΔΔCt.
as §1, with “ReliaPrepTM” for “ReliaPrep™”, “2-ΔΔCt.” for “2^-ΔΔCt.”
In general terms: In qPCR the cycle at which signal appears reflects the starting amount.

For data set [3], the system named is C2C12 murine myoblasts. Put plainly: RealTime-Glo MT Cell Viability Assay. Conditions: at EC50 concentration (250 µM), 24 hours.
Description: RealTime-Glo™ kits MT Cell Viability Assay (Promega) was used to investigate the effects of IOX2 and FG-4592 treatment on cell viability. Briefly, 5 x 10^3 C2C12 murine myoblasts were seeded in a 96 well plate and incubated for 24 hours (T0) with MT Cell Viability Substrate (1:1000 dilution) and NanoLuc® Enzyme (1:1000 dilution). Then, 50 µM IOX2 or 40 µM FG-4592 were added to the cell cultures and incubated for other 24 hours before luminescence analysis.
RealTime-Glo™ kits MT Cell Viability Assay (Promega) was used to investigate the effects of PLG treatment on cell viability. Briefly, 5 x 10^3 C2C12 murine myoblasts were seeded in a 96 well plate and incubated for 24 hours (T0) with MT Cell Viability Substrate (1:1000 dilution) and NanoLuc® Enzyme (1:1000 dilution). Then, each PLG inhibitor was added at its EC50 to the cell cultures and incubated for other 24 hours before luminescence analysis.
For data set [4], the system named is Myogenin. The data set can be described thus: qPCR of Myogenin during differentiation. The format is cell-based, murine. The conditions noted are these: day 3 of differentiation, 250 µM PLG pre-treated myoblasts. On the procedure: as §1
as §1, with “ReliaPrepTM” for “ReliaPrep™”, “2-ΔΔCt.” for “2^-ΔΔCt.”

In data set [5] the test system is MHC. Put plainly: qPCR of MHC during differentiation. The format is cell-based, murine. Conditions: day 7 of differentiation, 250 µM PLG pre-treated myoblasts. On the procedure:
as §1
as §1, with “ReliaPrepTM” for “ReliaPrep™”, “2-ΔΔCt.” for “2^-ΔΔCt.”

In data set [6] the test system is PHDs. The data set can be described thus: ODD-luciferase reporter assay (Dual-Glo) for PHDs inhibition. Conditions: C2C12 myoblasts transfected with ODD-luciferase-pcDNA3; 24 hours at 50, 100, 250, 500, 1000 µM, normoxic conditions; linear regression. For orientation: Reporter assays use an easily measured gene product as a stand-in for the process of interest.
Description: The IC50 was calculated using a Dual-Glo® Luciferase Assay System kit (Promega) that allows a high-throughput analysis of mammalian cells containing the Firefly (Luciferase-pcDNA3, ODD-Luciferase-pcDNA3) and Renilla (pRL-CMV) luciferase reporters. Briefly, 5 x 10^3 cells per well were seeded in a 96-well plate, and then transfected for 24 hours with a Luciferase-pcDNA3 or an ODD-Luciferase-pcDNA3 (80 ng), containing the firefly gene reporter. A co-transfection with pRL-CMV (8 ng), containing the renilla gene reporter, was performed as an internal control, according to the ViaFect Transfection Reagent® protocol (Promega). After transfection, cells were treated with 10, 25, 50, and 100 µM IOX2 or FG-4592 (R oxadustat) for 24 hours, and then an equal volume of Dual-Glo® Luciferase Reagent was added to each well, incubated at room temperature for 30 minutes, and then analyzed with a Varioskan™ LUX Multimode Microplate Reader (ThermoFisher Scientific). Then, an equal volume of Dual-Glo® Stop & Glo® Reagent was added to each well in order to quench the luminescence from the firefly reaction and to provide the substrate for the renilla luciferase. The mixture was incubated for 30 minutes before analysis. The IC50 values were calculated by linear regression.
To this purpose, the IC50 of both compounds was determined by transiently co-transfecting C2C12 myoblasts with the ODD-luciferase-pcDNA3 plasmid, containing the Oxygen Dependent Domain (ODD) of HIF-1α, and with the pRL-CMV plasmid, as the internal control (Figure 4, panel A). Then, transfected cells were treated for 24 hours with IOX2 or FG-4592 at different concentrations (10, 25, 50, and 100 µM) under normoxic conditions, and the emitted luminescence was collated to untreated controls.
The EC50 was calculated using a Dual-Glo® Luciferase Assay System kit (Promega) that allows a high-throughput analysis of mammalian cells containing the Firefly (Luciferase-pcDNA3, ODD-Luciferase-pcDNA3) and Renilla (pRL-CMV) luciferase reporters. Briefly, 5 x 10^3 cells per well were seeded in a 96-well plate, and then transfected for 24 hours with a Luciferase-pcDNA3 or an ODD-Luciferase-pcDNA3 (80 ng), containing the firefly gene reporter. A co-transfection with pRL-CMV (8 ng), containing the renilla gene reporter, was performed as an internal control, according to the ViaFect Transfection Reagent® protocol (Promega). […] Then, an equal volume of Dual-Glo® Stop & Glo® Reagent was added to each well in order to quench the luminescence from the firefly reaction and to provide the substrate for the renilla luciferase. The mixture was incubated for 30 minutes before analysis. The EC50 values were calculated by linear regression.
The EC50 of each compound was determined by transiently co-transfecting C2C12 myoblasts with the ODD-luciferase-pcDNA3 plasmid, containing the Oxygen Dependent Domain (ODD) of HIF-1α, and with the pRL-CMV plasmid, as the internal control (Figure 12, panel A).
In data set [7] the test system is murine myoblasts C2C12. The data set can be described thus: Skeletal muscle differentiation, MHC immunofluorescence (fusion and differentiation indexes). The format is cell-based. The conditions noted are these: 250 µM PLG 24 hours in GM, then 7 days in DM without inhibitor; vs untreated controls. On the procedure: (§2) The DM was changed every day for 7 days. Cells were analyzed at 24 hours post-treatment (PT), at 3rd and 7th days of skeletal muscle differentiation.
After differentiation for 7 days in DM, cells were washed with phosphate saline buffer (PBS) and fixed for 15 minutes in 4% (w/v) paraformaldehyde at room temperature. For permeabilization and blocking, cells were incubated for 1 hour in the presence of PBS 0.1% (v/v) Triton X-100 (TX-100, Merck) and 5% (w/v) FBS (Merck) at room temperature. […] After incubation, cells were washed three times in PBS and incubated for 1 hour at room temperature with an anti-mouse FITC-conjugated secondary antibody (Jackson ImmunoResearch), diluted 1:200. […] Myogenesis was assessed by measuring the myotube area and the number of myonuclei per myotube using a fluorescent microscope (Olympus TH4-200) equipped with an acquisition camera. To quantify both differentiation and fusion indexes, ten fields were chosen randomly and, for each field, a minimum of one hundred myosin-positive myotubes with more than two myonuclei were measured using the ImageJ v1.49o software. The area and the number of nuclei per myotube was the mean of ten measurements averaged from three different experiments.
as §2

Data set [8] relates to HIF-1α. Put plainly: Western blot of HIF-1α nuclear translocation. The format is cell-based, murine. The conditions noted are these: PLG at EC50 (250 µM) for 24 hours, vs untreated control; Lamin A/C housekeeper. As to the method:
(§3) For nuclei separation, 5 x 10^6 cells were collected after enzymatic digestion with trypsin (Merck), centrifuged at the maximum speed, resuspended in 400 µl of Buffer A (10 mM KCl, 0.1 mM EDTA, 1 mM DTT, 10 mM Hepes, pH 7.9), containing protease and phosphatase inhibitors cocktail (Merck), and incubated on ice for 20 minutes. Then, 10% NP40 was added to the cell suspension, mixed for 40 seconds, and centrifuged 40 seconds at the maximum speed. After centrifugation, the pellet was resuspended in 80 µl of Buffer C (0.4M NaCl, 1 mM EDTA, 1 mM DTT, 20 mM Hepes, pH 7.9), containing a protease and phosphatase inhibitors cocktail, and then mixed for 30 minutes at 4°C at the maximum speed. Finally, the nuclear suspension was centrifuged for 5 minutes at 4°C at the maximum speed, collected and transferred in a new tube. The total protein content was determined with the BCA Protein Assay Kit (Pierce), according to the manufacturer's instructions.
(§4) Proteins were denaturated by boiling for 10 minutes in sample buffer (0.6 g/100 mL Tris, 2 g/100 mL SDS, 10% glycerol, 1% 2-mercaptoethanol, pH 6.8) and loaded into 10% SDS-PAGE gel, then transferred onto a nitrocellulose membrane (Trans-blot, Bio-Rad Laboratories) by electroblotting. Nitrocellulose membranes were incubated with a blocking solution containing 5% (w/v) non-fat dry milk or 5% (w/v) BSA (Merck) in Tris-buffer saline with 0.1% Tween® 20 (TBS-T) for 1 hour. […] Membranes were washed three times for 10 minutes with TBS-T, and then incubated with the appropriate anti-mouse, anti-rabbit, or anti-goat HRP-conjugated secondary antibodies (Dako, Agilent Technologies), 1:2000 dilution, for 1 hour at room temperature. After three washes for 10 minutes with TBS-T, the immunoreactive bands were visualized using the enhanced chemiluminescence detection kit reagents (ECL Advance, GeHealthcare), according to the manufacturer's instructions.
as §3, with “For total proteins extraction, 7.5 x 10^4 cells were seeded and harvested at 7th days of skeletal muscle differentiation, as previously described. Cells were collected after enzymatic digestion with trypsin (Merck), lysed by sonication and centrifuged at 800 xg for 10 minutes. Supernatant was used to determine total protein content with the BCA Protein Assay Kit (Pierce), according to the manufacturer's instructions. For” for “For”, “(0.4 M” for “(0.4M”
(A western blot detects proteins with antibodies after separation by electrophoresis.)

The subject of data set [9] is MyoD. Put plainly: Western blot of MyoD nuclear localization. The format is cell-based, murine. The conditions noted are these: 250 µM PLG for 24 hours. As to the method:
as §3, §4
as §3, with “For total proteins extraction, 7.5 x 10^4 cells were seeded and harvested at 7th days of skeletal muscle differentiation, as previously described. Cells were collected after enzymatic digestion with trypsin (Merck), lysed by sonication and centrifuged at 800 xg for 10 minutes. Supernatant was used to determine total protein content with the BCA Protein Assay Kit (Pierce), according to the manufacturer's instructions. For” for “For”, “(0.4 M” for “(0.4M”

In data set [10] the test system is PHD2. The data set can be described thus: qPCR of HIF-1α target gene PHD2. The format is cell-based, murine. Conditions: PLG at EC50 (250 µM), 24 hours. On the procedure: as §1
as §1, with “ReliaPrepTM” for “ReliaPrep™”, “2-ΔΔCt.” for “2^-ΔΔCt.”

In general, EC50 refers to the concentration giving half of the maximal effect. A lower EC50 goes with higher potency in that assay. `O=C(O)CCC(=O)NNC(=O)c1cc2ccccc2cn1` [PLG2]: in data set [1], the Cell toxicity result was “not due to a toxic effect”. Also, the “enhancement of VEGF” value in data set [2] is on record as 1.1 fold. In addition, in data set [3], the “decrease in the proliferation rate” value came out at 20%. Besides, the “increase of Myogenin” value in data set [4] was 1.2 fold. Further, in data set [5], the “enhancement of MHC” value is listed as 1.3 fold. The same compound showed an EC50 in [6] of 250 µM. Besides, in data set [7], the fusion index result was “no significant changes” and the “increase in the differentiation index” value is recorded as 1.15 fold. Besides, the “HIF-1α nuclear translocation, protein increase” value in [8] is on record as 1.3 fold. The “increase of the nuclear localization of MyoD” value (shortened to “increase … of MyoD”) in data set [9] is 1.2 fold. Besides, the “increase of PHD2” value in data set [10] is listed as “no significant changes”.
In the case of `O=C(O)CCC(=O)NNC(=O)c1cc2c(cn1)[nH]c1ccccc12` [PLG6], in [6], the half-maximal effective concentration (EC50) result is “undetectable”.
For `COC(=O)CCC(=O)NNC(=O)c1cc2c(cn1)[nH]c1ccccc12` [PLG8], the Cell toxicity result in data set [1] is “not due to a toxic effect”. Besides, the “enhancement of VEGF” value in data set [2] is reported as 1.6 fold. In data set [3], the “decrease in the proliferation rate” value was 60%. Further, in data set [4], the “increase of Myogenin” value is on record as 1.4 fold. In addition, the “enhancement of MHC” value in data set [5] is 1.5 fold. In data set [6], this compound gave an EC50 of 250 µM. In data set [7], the fusion index result was “no significant changes” and the “increase in the differentiation index” value is recorded as 1.15 fold. For the same compound, the “HIF-1α nuclear translocation, protein increase” value in data set [8] amounted to 1.5 fold. In addition, the “increase … of MyoD” value in data set [9] was determined as 1.4 fold. The “increase of PHD2” value in data set [10] is on record as 1.8 fold.
Take `COC(=O)CCC(=O)NNC(=O)c1cc2ccccc2cn1` [PLG11]: the Cell toxicity entry in data set [1] was “not due to a toxic effect”. The “enhancement of VEGF” value in data set [2] worked out at 1.2 fold. Besides, in data set [3], the “decrease in the proliferation rate” value was determined as 17%. For the same compound, the “increase of Myogenin” value in [4] is given as 1.4 fold. In addition, the “enhancement of MHC” value in data set [5] amounted to 1.4 fold. In data set [6], this compound yielded an EC50 of 250 µM. In addition, in data set [7], the fusion index entry is “no significant changes” and the “increase in the differentiation index” value is listed as 1.2 fold. In [8], the “HIF-1α nuclear translocation, protein increase” value is reported as 1.5 fold. Further, in data set [9], the “increase … of MyoD” value is on record as 1.3 fold. Further, the “increase of PHD2” value in [10] is given as 1.3 fold.
For `CN(C)c1ccnc(C(=O)NNC(=O)CCC(=O)O)c1` [PLG19], in [6], the concentration giving a half-maximal response (EC50) entry is reported as “undetectable”.
Turning to `COC(=O)CCC(=O)NNC(=O)c1cc(N(C)C)ccn1` [PLG23], in [6], the half-maximal effective concentration (EC50) entry was “undetectable”.
